Results published in ChEMBL document CHEMBL1158004, “New alkaloids from the indopacific sponge Stylissa carteri” (J Nat Prod, 1999).
In brackets after ≈: the same amount, converted by molar mass.

Test: Cytotoxicity against human MONO-MAC 6 cells assessed as [3H]thymidine incorporation after 48 hrs
Format: functional, cell-based

Structure (SMILES) | IC50
NC1=N/C(=C2/CCNC(=O)c3[nH]ccc32)C(=O)N1 [DEBROMOHYMENIALDISINE] | 2.4 µg/mL (≈ 9.79 µM)
NC1=NC(=O)/C(=C2\CCNC(=O)c3[nH]c(Br)cc32)N1 [HYMENIALDISINE] | 0.2 µg/mL (≈ 0.617 µM)
